Measurements reported in patent publication US20080033018A1, “Therapeutic Agents For Overactive Bladder” (Chugai Seiyaku Kabushiki Kaisha, priority 2004, published 2008).

How the values were obtained:
[1] = system: nNOS-Knockout mice; test: Urination dynamics (urination frequency, urination volume) in nNOS-Knockout mice, observation system for urination behavior; assay type: in vivo
Source text: There has been established no animal models of disease reflecting frequent urination in elderly male subjects. In carefully searching various kinds of information, nNOS-Knockout mice were pointed out to have a possibility as a model of frequent urination (dilatation of urinary bladder, hyperplasia of smooth muscle, lack of relaxation responses, see Non-patent Document 9 for its creation) in May, 1997 (Non-patent Document 10), but have not been studied as a therapeutic model. nNOS-Knockout mice have now been investigated for their possibility as a model of frequent urination by using an instrument (an observation system for urination behavior, Muromachi Kikai Co., Ltd., Japan) to determine urination dynamics (urination volume and urination frequency) of the mice. […]
Nicorandil was given to nNOS-Knockout mice (8-13 months of age) by forced oral administration at 6 mg/kg/day for 7 days using a sound for oral administration. […]
The daily urination frequency was measured with an observation system for urination behavior (Muromachi Kikai Co., Ltd., Japan). […]
Furthermore, with the aim of clarifying the contribution of the nicorandil's nitrate-like action, pinacidil (SIGMA) known as a pure and potent KATP channel opener was also used for comparison of the urination frequency (FIG. 2).

[2] = system: KATP channel; conditions: report, Non-patent Document 7; cited from earlier work
[3] = system: urethral obstruction rats; conditions: rat, in vivo, po, 1 mg/kg
Protocol: “Urinary retention” as used herein refers to a state where the urination volume is 3 hr=0.
Rats at 45 days after urethral obstruction (φ1 mm, urethra was obstructed in rats at 9 weeks of age) were administered orally with nicorandil (3 mg/kg) or KRN2391 (1 mg/kg), subjected to water loading (30 ml/kg, po) and then monitored for their urination volume over 180 minutes (n=10 for each group).

[4] = system: urethral obstruction rats; test: Urination frequency after water loading in rat urethral obstruction model; assay type: in vivo; conditions: over 210 minutes
Source text: As described above, there are many causes that induce frequent urination, and dysuria-induced frequent urination is also known. A rat animal model of urethral obstruction has been reported as a model for efficacy verification of many ameliorating agents for frequent urination (Non-patent Documents 17 and 18). In this example, a midline incision was made in the lower quadrant of each rat (9 weeks of age) under pentobarbital anesthesia, and the proximal urethra was ligatured together with a stainless rod (φ1 mm) by using a 3-0 silk suture, followed by pulling out the rod to create a urethral obstruction model. At 45 days after urethral obstruction, the rats were subjected to water loading (30 ml/kg, po; “water loading” as used herein refers to forced oral administration of distilled water using a sound) and observed for their urination frequency over 210 minutes, such that animals having a urination frequency greater than that of normal animals (5 times) were selected as animals with frequent urination. These animals were administered orally with nicorandil (1 mg/kg) or KRN2391 (1 mg/kg) (dissolved in distilled water for water loading) and then observed for their urination frequency over 210 minutes (n=5 for each group).

[5] = system: non-anesthetized conscious rats; test: Hypotensive effect (blood pressure) in non-anesthetized conscious rats after oral administration; assay type: in vivo, rat; conditions: compared at a dosage causing a 20 mmHg reduction in blood pressure, FIG. 4
Source text: In view of this fact, to study a hypotensive effect regarded as a side effect in the amelioration of frequent urination, both drugs were compared for their effect on blood pressure when orally administrated to non-anesthetized conscious rats (“non-anesthetized conscious rat” as used herein refers to an animal pre-treated such that a catheter for blood pressure measurement is inserted and placed in its femoral artery under anesthesia to ensure blood pressure monitoring, which animal is used on the following day after the anesthesia wears off). […] The measurement of blood pressure was performed as follows: the catheter for blood pressure measurement was connected to a blood pressure transducer (Nihon Kohden Corporation, Japan) and input into a polygraph (Nihon Kohden Corporation, Japan).

[6] = system: nNOS-Knockout mice; test: Daily urination volume in nNOS-Knockout mice (oliguria); assay type: in vivo; conditions: nNOS-Knockout mice 12-16 weeks, 1 mg/kg, 24 hours after administration, p<0.05
[7] = Enarmon-depot 3.6 mg/kg/day, sc, 7 days, n=5, vs control group (n=8), p<0.05

Compound: CC(N/C(=N\C#N)Nc1ccncc1)C(C)(C)C (stereo not shown) [pinacidil]
- urination frequency ([1]; oral 0.3 mg/kg (dose strongly affecting the mouse cardiovascular system), FIG. 2): no significant decrease

Compound: CCCCCCC(=O)O[C@H]1CC[C@H]2[C@@H]3CCC4=CC(=O)CC[C@]4(C)[C@H]3CC[C@]12C [testosterone, testosterone enanthate]
- daily urination volume ([1]; Enarmon-depot 3.6 mg/kg/day, sc, 7 days, n=5, vs control group (n=8)): no change
- single urination volume [1, 7]: significant increase
- urination frequency [1, 7]: significant decrease

Compound: N#CNC(=NCCO[N+](=O)[O-])c1cccnc1 [KRN2391]
- hypotensive effect due to KATP channel opening action, stronger than that of nicorandil [2]: 25 fold
- number of animals without urination [3]: 5 animals
- urinary retention [3]: a state of urinary retention was observed
- urination volume [3]: 0.50 ± 0.30 mL
- reduction of urination frequency ([4]; 1 mg/kg po, vs before administration): 34.3%
- urination frequency after administration ([4]; 45 days after obstruction, 1 mg/kg po with water loading 30 ml/kg, n=5, p<0.05): 2.4±0.8 times/210 minutes
- amount producing hypotensive effect, smaller than nicorandil [5]: 10 fold
- effect on daily urination frequency (ameliorating effect on urination) ([1]; 1 mg/kg, p<0.05, FIG. 2): significant ameliorating effect
- effect on daily urination volume [6]: significant inhibitory effect
